Measured values as given in patent US20150328221A1, “COMPOUNDS FOR PROTECTION OF PHOTORECEPTOR CELLS AND FOR ENHANCING VISUAL FUNCTION UNDER LOW LIGHT CONDITIONS” (Allergan, Inc., priority 2014, published 2015).
“Also recorded” adds a separate entry of the source.

Assays:
rod photoreceptors = assay: Scotopic flash ERG (a- and b-wave) after blue light-induced injury, model of dry AMD; format: in vivo, rat; details: for protection of retinal signaling: doses greater of 1 mg/kg, blue-light induced damage model in rodent; for protection of rod photoreceptors from blue light-induced injury: model of dry AMD
Text: Seven days after exposure to 10,000 lux blue light, the amplitude of a- and b-wave components of the electroretinogram (ERG) is reduced to 20-30% of its pre-exposure amplitude (FIG. 4A). The ERG signals from median respondents in each group are shown in the inset in A. The tracing designated “α” illustrates the signal evoked in a naïve animal when stimulated with 20 candela-sec/m^2 white light. […] Full dose response showing the dose and corresponding retinal concentration of zalospirone is shown in the bar graph (FIG. 4A).
Seven days after exposure to 10,000 lux blue light, the amplitude of a- and b-wave components of the electroretinogram (ERG) is reduced to 20-30% of its pre-exposure amplitude (A). Full dose response showing the dose and corresponding retinal concentration of eptapirone is shown in the bar graph (A). The respective doses and corresponding retinal concentrations achieved following subcutaneous administration of eptapirone are shown on the abscissa. Data is plotted as the mean±SEM percentage of a- or b-wave measured prior to blue light-induced retinal degeneration. Protection of retinal architecture measured as the area of the outer nuclear layer (B) or the size of the lesion (C) in a section taken through the vertical meridian of the eye. H&E stained sections of from the median respondent, naïve and vehicle- or drug-treated animals illustrate the level protection achieved by treatment with 0.3 mg/kg eptapirone.
(§1) Bilateral flash ERG recordings on the dual dome Espion E^3 system (Diagnosys, LLC) were made prior to (baseline) and on the Day of zalospirone administration. Animals were anesthetized with a cocktail of 30 mg/mL Ketamine/0.2 mg/mL Dexmedetomidine (i.m.) to reach a final dose of 15 mg/kg Ketamine and 0.1 mg/kg Dexmedetomidine. Animals' eyes were given 1 drop each of 1% phenylephrine, 0.5% atropine and 1% proparacaine, sequentially. Noninvasive platinum wire loop electrodes moisturized with artificial tears (Goniovisc, Sigmapharmaceuticals, Inc.) were placed over the eyes, a reference electrode were placed in the bridge of the nose and a ground wire into the tail. Scotopic ERG measurements were made at 1e^−5 to 20 cd s/m^2. Photopic ERG measurements for S- and M-cone function were made at 8e^−4 to 40 cd s/m^2. The recording filter was set at 300 Hz.
(§2) Protection of rod photoreceptors by zalospirone from light induced injury is exemplified in FIG. 4 and by eptapirone in FIG. 5 below. Doses greater of 1 mg/kg provide 100% protection of structural integrity of the outer nuclear layer and 80% of retinal signaling in a blue-light induced damage model in rodent.

[1] = test system: rod photoreceptors / outer nuclear layer; assay: Histological analysis (H&E) of retinal architecture after blue light-induced injury; format: in vivo, rat; details: for retinal lesion (loss of photoreceptors) measured in the vertical meridian of the eye: blue light injury, maximal damage 1.5 mm superior to the optic nerve head; for protection of structural integrity of the outer nuclear layer: doses greater of 1 mg/kg, blue-light induced damage model in rodent; for outer nuclear cell count and retinal structure (H&E stained retinas): post-blue light, drug-treated vs naive and vehicle-treated retinae
Procedure: Protection of retinal architecture measured as the total count of photoreceptors (FIG. 4B) or the size of the lesion (FIG. 4C) in the section taken through the vertical meridian of the eye. (FIG. 4D) H&E stained sections of from the median respondent, naïve and vehicle- or drug-treated animals illustrate the level protection achieved by treatment with 1 mg/kg zalospirone.
On Day 7 post BL-exposure, animals were anesthetized with Euthasol and decapitated. Following decapitation, bilateral globes were enucleated and marked at the 12:00 position with black tissue ink. Both eyes from each animal were incubated in 5 mL of Davidson's fixative special overnight at RT. After ˜24 hours, both eyes were dehydrated in 50% ethanol (EtOH) for 1 hour at RT followed by storage in 70% EtOH at RT until paraffin processing. Eyes were then shipped to Premier Lab (Longmont, Colo.) for paraffin processing and embedding. Five micrometer thick paraffin sections were cut through the optic nerve head and mounted on glass.
For each eye, three H&E-stained slides were generated. Slides containing H&E-stained cross sections were imaged using the Nanozoomer whole slide scanner employing a 40× objective under bright field optics.
as §2

5-HT1A receptor = biological target: T1, 5-HT1A receptor (Homo sapiens, UniProt P08908); details: description of the compound; cited from earlier work
T1 sequence (P08908 1-422): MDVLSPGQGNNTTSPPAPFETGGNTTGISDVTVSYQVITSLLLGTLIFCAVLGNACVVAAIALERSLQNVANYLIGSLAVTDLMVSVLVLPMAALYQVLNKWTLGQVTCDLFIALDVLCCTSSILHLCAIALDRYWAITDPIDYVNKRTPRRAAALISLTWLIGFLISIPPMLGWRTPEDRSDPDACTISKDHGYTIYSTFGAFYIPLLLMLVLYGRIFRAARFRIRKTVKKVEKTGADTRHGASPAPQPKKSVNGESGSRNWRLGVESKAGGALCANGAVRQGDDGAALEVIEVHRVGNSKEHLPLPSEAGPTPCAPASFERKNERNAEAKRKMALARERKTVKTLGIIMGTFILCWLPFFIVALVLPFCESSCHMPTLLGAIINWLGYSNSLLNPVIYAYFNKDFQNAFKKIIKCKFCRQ

scotopic b-wave = assay: Scotopic b-wave ERG with treatment after blue light-induced injury; format: in vivo, Sprague Dawley rat; details: single subcutaneous 3 mg/kg given after blue light injury (3.5 hour, 10,000 lux); stimulus 10^−5 candela-sec/m^2; N=8
Procedure: FIGS. 9A and 9B illustrate that treatment with zalospirone restores of the amplitude of the scotopic b-wave following light induced injury. FIG. 9A is a representative ERG recordings from a Sprague Dawley rat which was dark adapted overnight and exposed to white light stimulus (10^−5 candela-sec/m^2) are shown at baseline before injury, 7 days following exposure to a 3.5 hour exposure to 10,000 lux blue light and again at 3 days later following a single subcutaneous administration to 3 mg/kg zalospirone. […] The data are presented as mean±SEM, N=8.
as §1, with “The recording filter was set at 300 Hz.” left out

cone photoreceptors [2] = assay: Anti-opsin immunofluorescence in retinal cross sections after blue light-induced injury; format: in vivo, rat; details: pretreatment with 3 mg/kg
Text: (§3) FIG. 6A to 6E illustrate that zalospirone protects cone photoreceptors from blue light-induced injury in a model of dry AMD. […] The amplitude of the medium-wave (blue- and green-light responsive) cone driven ERG signals were reduced by >90% while the short-wave (ultra violet and blue-light responsive) cone signals were virtually eliminated (A, B).
A subset of 5 μm thick paraffin sections cut through the vertical meridian (prepared by Premier Labs) was not stained with H&E, but instead was subjected to anti-opsin immunofluorescent staining to detect both SW and M/L cones. Briefly, sections were baked at 60° C. for 1 hr, deparaffinized in xylene, rehydrated in a decreasing series of alcohols, rinsed in PBS 3×, and blocked in PBS containing 0.1% Tween 20, 0.1% Triton×100, and 5% normal donkey serum for 2 hr at RT. Slides were reacted 0/N at 4° C. with a combined mixture of anti-SW (SCBT; SC-14363) and -M/L (Millipore, Ab5405) opsin antibodies diluted to 1:200 and 1:500, respectively in a PBS buffer containing 0.1% Tween 20, 0.1% Triton×100, and 5% normal donkey serum. To control for specificity of staining, an additional subset of slides were reacted with a combined mixture of anti-SW opsin antibody preadsorbed with sc-14363/blocking peptide and normal rabbit IgG. […] The number of SW and M/L cones was manually counted for both slides from each study eye in dual channel fluorescent images. […]

cone photoreceptors [3] = assay: Photopic ERG for S- and M-cone function after blue light-induced injury; format: in vivo, rat; details: pretreatment with 3 mg/kg; 7 days after 10,000 lux blue light
Text: as §3, §1
The protection of cone photoreceptors by zalospirone from light induced injury is exemplified in FIG. 6 below.

retinal signaling = assay: Full-field ERG (modified ISCEV protocols) in normal animals, scotopic and photopic; format: in vivo, rat
Procedure: FIG. 7 illustrates that zalospirone selectively enhances the scotopic b-wave. Visual function was assessed in vivo in the rat using standard ISCEV protocols. Measurements were made under scotopic (dark-adapted) conditions (“A”-“C”) or photopic conditions (“D”,“E”). In dark adapted animals, ERG recordings elicited by low intensity stimuli (1×10^−4 candela-sec m^2) treatment with 3 mg/kg zalospirone results in a 50% enhancement of the b-wave (“A”). […] Under photopic conditions signals predominately driven by the cone photoreceptors, the photopic b-wave (“D”) or ERG response to 20 Hz flicker (“E”) were unaffected by treatment with zalospirone (3 mg/kg).
FIG. 8 “A” to “C” illustrates that zalospirone selectively enhances the scotopic b-wave.
as §1
In addition to protecting retinal photoreceptors and preserving their function during exposure to an insult, the enhancement or normalization of retinal signaling after injury would be provide significant value in degenerative retinal diseases. The International Society for Clinical Electrophysiology of Vision (ISCEV) provides standards for ascertaining the effects of interventions on retinal signaling. […] Expanding on the observation that scotopic signaling was enhanced in normal animals, it was hypothesized that zalospirone could contribute to the normalization of retinal signaling following injury.

[4] = 7 days after 10,000 lux blue light
[5] = 3 mg/kg, dark adapted, 20 candela-sec m^2
[6] = 3 mg/kg, photopic conditions, normal animals

SMILES: Cn1c(=O)cnn(CCCCN2CCN(c3ncccn3)CC2)c1=O [eptapirone, 4-Methyl-2-[4-(4-pyrimidin-2-yl-piperazin-1-yl)-butyl]-2H-[1,2,4]triazine-3,5-dione]
- protection of retinal signaling (rod photoreceptors): 80%
- protection of rod photoreceptors from blue light-induced injury (rod photoreceptors; [4]): protects rod photoreceptors from blue light-induced injury
- retinal lesion (loss of photoreceptors) measured in the vertical meridian of the eye [1]: almost entirely prevents this lesion from forming
- protection of structural integrity of the outer nuclear layer [1]: 100%
- outer nuclear cell count and retinal structure (H&E stained retinas) [1]: maintains outer nuclear cell count but also normalizes retinal structure
- 5-HT1A receptor activity (5-HT1A receptor): very potent and highly selective 5-HT1A receptor full agonist

SMILES: O=C1[C@@H]2C3C=CC([C@H]4CC[C@@H]34)[C@@H]2C(=O)N1CCCCN1CCN(c2ncccn2)CC1 [zalospirone, (3aα,4α,4aβ,6aβ,7α,7aα)-hexahydro-2-(4-(4-(2-pyrimidinyl)-1-piperazinyl)butyl)-4,7-etheno-1H-cyclobut(f)isoindole-1,3(2H)-dione]
- scotopic b-wave amplitude after injury compared with baseline (scotopic b-wave): fully restored the b-wave to its baseline amplitude; also recorded: restored b-wave amplitudes to the baseline levels
- protection of retinal signaling (rod photoreceptors): 80%
- protection of the ERG signal (rod photoreceptors; median animal dosed with 3 mg/kg, 7 days after 10,000 lux blue light, 20 candela-sec/m^2 white light stimulus): complete protection
- protection of rod photoreceptors from blue light-induced injury (rod photoreceptors; [4]): protects rod photoreceptors from blue light-induced injury
- retinal lesion (loss of photoreceptors) measured in the vertical meridian of the eye [1]: almost entirely prevents this lesion from forming
- protection of structural integrity of the outer nuclear layer [1]: 100%
- outer nuclear cell count and retinal structure (H&E stained retinas) [1]: maintains outer nuclear cell count but also normalizes retinal structure
- 5-HT1A receptor activity (5-HT1A receptor): selective 5-HT1A partial agonist
- cones by short wave and medium/long wave opsin immunofluorescent staining (cone photoreceptors [2]): virtually identical to that in naïve animals; also recorded: prevents the loss of cones
- photopic b-wave amplitude (medium-wave and short-wave cone driven ERG signals) (cone photoreceptors [3]): significantly protected; also recorded: largely restored ERG signaling
- rod-based signaling (scotopic b-wave) (retinal signaling; 3 mg/kg, dark adapted rats, low intensity stimuli ≦10^−3 candelas-sec/m^2): preferentially augments rod-based signaling
- retinal oscillatory potentials (retinal signaling; [5]): neither the b-wave (“B”) nor the retinal oscillatory potentials (“C”) were affected
- scotopic b-wave at greater intensity stimuli (retinal signaling; [5]): neither the b-wave (“B”) nor the retinal oscillatory potentials (“C”) were affected
- enhancement of the scotopic b-wave (retinal signaling; 3 mg/kg, dark adapted, low intensity stimuli 1×10^−4 candela-sec m^2): 50%
- ERG response to 20 Hz flicker (retinal signaling; [6]): unaffected
- photopic b-wave (retinal signaling; [6]): unaffected
- scotopic signaling, modified ISCEV full-field electroretinography (retinal signaling; rat): selectively enhanced scotopic signaling
